pIC50: −log10 of the molar value. ≈ marks a conversion by molar mass, not a printed value. Like-named read-outs stand apart in the source and are kept apart here. Bridge positions count the residues as written; N and C are the ends. Square brackets hold non-standard residues; d marks the D form. Peptide text beside a SMILES is read from it. I, II: the chains in the order shown. Ahx = NCCCCCC(=O)O

Data set [1] relates to MCF-7 cells. As to the kind of experiment: Type of cell death (apoptosis/necrosis), Annexin V/PI flow cytometry. It counts as cell-based, human. To be noted: MCF-7, peptide 15 µM, 24 h, annexin V and PI. The protocol:
The cells were seeded and synchronized in boxes of 24 wells at a concentration of 4 × 10^4 cells/well in 400 μL/well, adhesion and synchronization were allowed in the same way as in Section 4.8, and the culture medium was replaced with medium containing the peptide to be evaluated and incubated for 2 or 24 h. Subsequently, the cells were harvested with trypsin, centrifuged at 2500 rpm for 10 min, washed with PBS, and resuspended in 10 μL of staining buffer with the fluorochromes (10 mM Hepes pH 7.4; 10 mM NaCl and 2.5 mM CaCl2 containing 1 μL of PI fluorochrome and 1 μL of Annexin V). Cells with the fluorochromes were incubated at 37 °C in the dark for 15 min and resuspended in 80 μL of staining buffer without fluorochromes for analysis via flow cytometry. The positive control of necrosis was: cells treated with EDTA 15 mM for 60 min, and apoptotic: cells treated with Actinomycin at 10 μM for 24 h. Negative control: cells without treatment; compensation controls: (i) cells stained only with Annexin, and (ii) only with PI; population control: unstained and untreated cells.
For orientation: A flow cytometer gives signals particle by particle.

In data set [2] the test system is MCF-7 cells. The data set can be described thus: Integrity of the cytoplasmic membrane, SYTO9/PI flow cytometry. It counts as cell-based, human. To be noted: MCF-7, peptide 15 µM, PI and SYTO9.
Description: The cells with complete medium were seeded and synchronized in boxes of 24 wells in a concentration of 4 × 10^4 cells/well in a volume of 400 μL/well, and adhesion to the plate was allowed for 24 h [52]. Then the complete medium was replaced by incomplete medium for synchronization of the cells for an additional 24 h. […] The cells were harvested by adding 200 μL of trypsin and incubating for 10 min. The trypsin was quenched with 200 µL of complete medium, and the cells were centrifuged at 2500 rpm for 10 min. The supernatant was discarded, and the pellet was washed with 100 µL PBS and centrifuged under the same conditions previously described. The supernatant was discarded, and the cells were stained with 30 μL of a solution from the LIVE/DEAD® FungaLigthTM commercial kit (Invitrogen) containing the mixture of fluorochromes (0.5 μL of SYTO9 and/or 0.5 μL of propidium iodide (PI) with 99 μL of PBS). Subsequently, the cells were incubated at room temperature and in the dark for 20 min and centrifuged, and the supernatant was discarded. The pellet was resuspended in 100 μL of PBS and analyzed via flow cytometry in a BD Accuri C6 device. The events were recorded using the green channel (FL1) on the abscissa axis and the red (FL3) on the ordinate axis. Negative control: untreated cells marked with both fluorophores; positive control: cells treated with actinomycin 10 μg/mL for 24 h [52]. […]
The test system of a further data set is MCF-12 cell line. It counts as cell-based, human. The protocol: (§1) For all cell lines, the medium used was Dulbecco’s Modified Eagle’s Medium (DMEM)/Nutrient Mixture F-12 Ham. For the HTB-132, MCF-7, and MCF-12A lines, the medium was supplemented with 10% fetal bovine serum (SFB), and 1.5 g/L NaHCO3 and NaOH were added up to pH 7.4, amphotericin (200 μg/mL), and 1% penicillin and streptomycin. For the primary culture cells of bovine mammary epithelium and fibroblasts, in addition to the above, hydrocortisone (250 μg/mL) was added. All media were filtered through a 0.22 μm membrane.
(§2) Briefly, the cells were seeded with a complete medium in 96-well plates at a rate of 10,000 cells and 100 µL per well, and adhesion to the plates was allowed for 24 h. Subsequently, the complete medium was removed and an incomplete medium was added for synchronization for another 24 h. The cells were then incubated at 37 °C for 2, 24, or 48 h with 100 μL of peptide at the concentrations to be evaluated (200, 100, 50, 25, 12.5, 6.25 and 3.1 μg/mL). Next, the peptide was removed from the box, and 100 µL of incomplete medium with 10% 3-4,5-dimethylthiazol-2-yl-2,5-diphenyltetrazole (MTT) bromide was added and incubated for 4 h. The medium was replaced with 100 μL of isopropanol (IPA), and after 30 min of incubation at 37 °C, the absorbance was measured at 575 nm. As a negative control, an incomplete culture medium with 10% MTT was used, and as a positive control, cells without MTT treatment were used.

Data set [3] relates to MCF-7 cells. As to the kind of experiment: Mitochondrial membrane depolarization, JC-1 flow cytometry. The data set is classed as cell-based, human. Conditions: MCF-7, peptide 15 µM.
Description: For this test, the MitoProbeTM JC-1 Assay kit (M34152 from Termofisher, Walthan, MA, USA) was used according to the supplier’s recommendations. The cells seeded and synchronized in a box of 24 wells (4 × 10^4 cells/well) were incubated with 400 μL of peptide to be evaluated at 2 and 24 h. The cells were then trypsinized and collected by centrifugation at 400 g × 5 min. The resulting pellet was stained by adding 100 μL of JC1 “working solution” (1:100 JCI solution reconstituted in DMSO: buffer assay 1×) and incubated at 37 °C for 20 min. Subsequently, the cells were washed twice with 1× buffer assay and finally resuspended in 100 μL of 1× buffer assay for reading on the cytometer. Negative control: cells without treatment; positive control: cells treated with 10 μM actinomycin for 24 h.
For a further data set, the system named is MCF-7 cell line. As to the kind of experiment: MTT viability test, MCF-7 cells. The data set is classed as cell-based, human. As for the experimental part: as §1, §2
Data set [4] has as its system MCF-7 cells. The data set can be described thus: Cell morphology and size by inverted microscope. It counts as cell-based, human. To be noted: MCF-7, 90 min of treatment, 37 °C; from 100.27 μm before; average of 100 measurements; Figure 3: 100 µg/mL. The protocol: Cell morphology was monitored before and after treatment with ^26[L] or ^26[F] at different times, using an inverted microscope coupled to an AxioCam ICc1 camera (Figure 3). The untreated cells had normal morphologic characteristics as polygonal, flattened, and elongated cells with long and defined axons (data not shown). After 5 min of treatment with the peptide, most cells retained their morphology; however, some began to appear rounded and shrunken. After 90 min, the cells treated with the peptide (^26[L] or ^26[F]) took on a rounded shape, and shrinkage was observed, going from an average size of 100.27 μm to 39.38 µm. […] At 24 h of treatment, the appearance of small vacuoles was observed, presumably associated with late apoptosis events. Finally, it was observed that the effect of the peptide was sustained up to 48 h since at that time no recovery of cell morphology was observed.
Figure 3 Micrography of MCF-7 cells treated with peptide ^26[F] at 100 µg/mL. The cells were incubated in the absence (A) or the presence of the peptide at (B) 5 min, (C) 90 min, (D) 240 min, (E) 24 h, and (F) 48 h at 37 °C. The cell size was determined as an average of 100 measurements, using an AxioCam ICc1 camera.

Data set [5] deals with HTB-132 cell line. The data set can be described thus: MTT viability test, HTB-132 cells. It counts as cell-based, human. Conditions: for IC50, cytotoxic effect, HTB-132: 24 h at 37 °C, mean of n = 3. The protocol:
as §1, §2
In general terms: Tetrazolium dyes change colour on reduction, which living cells bring about.

The test system of data set [6] is breast cancer cell lines HTB-132 and MCF-7. It counts as cell-based, human. Conditions: 24 h. The protocol: as §2
Data set [7] concerns HTB-132 cell line. As to the kind of experiment: MTT viability test, HTB-132 cells. It counts as cell-based, human. To be noted: 24 h, concentration range 1–100 µg/mL.
A further data set is described as follows: Stability during storage. To be noted: Met residue prone to oxidation; Supplementary Figure S1. It counts as physicochemical.
Data set [8] relates to MDA-MB 231 breast cancer cells. To be noted: peptide 100 µg/mL (30 µM); earlier work, ref not given; cited from earlier work. An excerpt: (§3) Breast cancer is the most common cancer type diagnosed worldwide. There are 2.1 million cases annually, and 627,000 deaths of women due to this disease were reported in 2018 [5]. […] However, when this motif was modified or included in longer sequences, the cytotoxic effect against human cancer cell lines increased. In ...

Data set [9] concerns MDA-MB 468 breast cancer cells. Conditions: peptide 100 µg/mL (30 µM); earlier work, ref not given; cited from earlier work.
Description: as §3

[10] abbreviates: MTT, 24 h at 37 °C, three independent experiments with n = 4 each.

Turning to `CC(C)C[C@H](NC(=O)[C@H](CCCCN)NC(=O)[C@H](CCCCN)NC(=O)[C@H](Cc1ccccc1)NC(=O)[C@H](CCCNC(=N)N)NC(=O)[C@H](Cc1c[nH]c2ccccc12)NC(=O)[C@H](CCC(N)=O)NC(=O)[C@H](Cc1c[nH]c2ccccc12)NC(=O)[C@H](CCCNC(=N)N)NC(=O)[C@@H](N)CCCNC(=N)N)C(=O)NCC(=O)NCCCC[C@H](NC(=O)CNC(=O)[C@H](CC(C)C)NC(=O)[C@H](CCCCN)NC(=O)[C@H](CCCCN)NC(=O)[C@H](Cc1ccccc1)NC(=O)[C@H](CCCNC(=N)N)NC(=O)[C@H](Cc1c[nH]c2ccccc12)NC(=O)[C@H](CCC(N)=O)NC(=O)[C@H](Cc1c[nH]c2ccccc12)NC(=O)[C@H](CCCNC(=N)N)NC(=O)[C@@H](N)CCCNC(=N)N)C(=O)NCCCCCC(N)=O` [^26[F], (RRWQWRFKKLG)2-K-Ahx] (I: H-RRWQWRFKKLGK[Ahx]-NH2 / II: H-RRWQWRFKKLG; amide I:12-II:C), the “cell population dyed with both fluorophores (apoptotic process)” value in the data set on MCF-7 cells [1] was 54%. The “cell population dyed with only PI (necrotic process)” value in the data set with MCF-7 cells [1] was determined as 21%. Moreover, in the data set with MCF-7 cells [2], the “cell population with cytoplasmic membrane affected” value is on record as 10%. In the data set with MCF-12 cell line, the “cytotoxic effect against MCF-12 compared with HTB-132 and MCF-7 (in words)” value is reported as “lower cytotoxic effect against MCF-12 cells than against breast cancer cell lines”. In addition, the pIC50 was 4.68 with MCF-12 cell line (24 h); 5.22 in the data set with MCF-7 cell line (human, 24 h, pH 7.4); 4.89 in the data set with HTB-132 cell line [5] (human, 24 h, pH 7.4); 4.89 to 5.22 in data set [6]. Moreover, in the data set on MCF-12 cell line (MTT, 24 h at 37 °C), the “IC50, non-tumorigenic cell line MCF-12” value came to 70 µg/mL (≈ 20.9 µM). Moreover, in the data set with MCF-7 cells [3], the “population with depolarization of the mitochondrial membrane” value is recorded as 19%. For the same compound, the “cytotoxic effect against MCF-7 compared with ^26[M] (in words)” value in the data set with MCF-7 cell line (MTT, 24 h) is recorded as “greater cytotoxic effect against MCF-7 cells than the peptide”. In addition, the “IC50, cytotoxic effect, MCF-7” value in the data set with MCF-7 cell line (setting [10]) worked out at 19 µg/mL (≈ 5.68 µM). In addition, in the data set on MCF-7 cell line (MTT, peptide 200 µg/mL, regardless of treatment time (2, 24, 48 h)), the “maximum cytotoxic effect, MCF-7” value is reported as “approximately 90%”. For the same compound, the “average cell size after treatment” value with MCF-7 cells [4] amounted to 39.38 µm. Further, the “cytotoxic effect against HTB-132 compared with ^26[M] (in words)” value with HTB-132 cell line [5] (MTT, 24 h) is “greater cytotoxic effect against cancer cells than the original peptide”. Further, the “IC50, cytotoxic effect, HTB-132” value in the data set on HTB-132 cell line [5] (MTT) is on record as 43 µg/mL (≈ 12.9 µM).

For the compound `CSCC[C@H](NC(=O)[C@H](CCCNC(=N)N)NC(=O)[C@H](Cc1c[nH]c2ccccc12)NC(=O)[C@H](CCC(N)=O)NC(=O)[C@H](Cc1c[nH]c2ccccc12)NC(=O)[C@H](CCCNC(=N)N)NC(=O)[C@@H](N)CCCNC(=N)N)C(=O)N[C@@H](CCCCN)C(=O)N[C@@H](CCCCN)C(=O)N[C@@H](CC(C)C)C(=O)NCC(=O)NCCCC[C@H](NC(=O)CNC(=O)[C@H](CC(C)C)NC(=O)[C@H](CCCCN)NC(=O)[C@H](CCCCN)NC(=O)[C@H](CCSC)NC(=O)[C@H](CCCNC(=N)N)NC(=O)[C@H](Cc1c[nH]c2ccccc12)NC(=O)[C@H](CCC(N)=O)NC(=O)[C@H](Cc1c[nH]c2ccccc12)NC(=O)[C@H](CCCNC(=N)N)NC(=O)[C@@H](N)CCCNC(=N)N)C(=O)NCCCCCC(N)=O` [^26[M], (RRWQWRMKKLG)2-K-Ahx] (I: H-RRWQWRMKKLGK[Ahx]-NH2 / II: H-RRWQWRMKKLG; amide I:12-II:C), the “cytotoxic effect at the maximum evaluated concentration, HTB-132” value in the data set on HTB-132 cell line [7] is recorded as about 55%. For the same compound, in the data set “Stability during storage”, the “stability during storage (in words)” value was “stability problems”. For the same compound, the “cytotoxic effect against MCF-7 (in words)” value in the data set with MCF-7 cell line (MTT, 24 h) is “does not exhibit a significant cytotoxic effect”. The “IC50, cytotoxic effect, MCF-7” value in the data set with MCF-7 cell line (setting [10]) is over 200 µg/mL. For the same compound, the pIC50 with MCF-7 cell line (MTT, 24 h at 37 °C, three independent experiments with n = 4 each, read-out: IC50, cytotoxic effect, MCF-7) was under 4.22. Also, in data set [8], the “cellular viability, MDA-MB 231” value was ~ 0% and the “cytotoxic effect, MDA-MB 231” value was about 100%. In addition, in data set [9], the “cellular viability, MDA-MB 468” value is recorded as ~ 0% and the “cytotoxic effect, MDA-MB 468” value is listed as about 100%. In addition, the “IC50, cytotoxic effect, HTB-132” value in the data set with HTB-132 cell line [5] (MTT) was 96 µg/mL (≈ 29 µM).

One may read the pIC50 as the negative decadic logarithm of the IC50, by convention in mol/L.
